Data taken from ChEMBL document CHEMBL5247609, “Novel nitric oxide-releasing derivatives of pyranocarbazole as antitumor agents: Design, synthesis, biological evaluation, and nitric oxide release studies” (Eur J Med Chem, 2022).
The source made the active and inactive calls. No cut-off for these calls is given here.

Assays:
MX1 [1] = experiment: Induction of morphological changes in human MX1 cells at 0.5 to 2 uM measured after 24 hrs by bright field inverted microscopic analysis; type: functional, cell-based; conditions: dose 0.5-2 µM
MDA-MB-231 [2] = experiment: Antiproliferative activity against human MDA-MB-231 cells assessed as reduction in cell viability by measuring release of nitrite at 100 uM after 180 mins by Griess reagent analysis; type: functional; conditions: 3 h
MX1 [3] = experiment: Induction of morphological changes in human MX1 cells assessed as decrease in cell number at 0.5 to 2 uM measured after 24 hrs by bright field inverted microscopic analysis; type: functional, cell-based; conditions: dose 0.5-2 µM
MX1 [4] = experiment: Induction of morphological changes in human MX1 cells assessed as decrease in cell size at 0.5 to 2 uM measured after 24 hrs by bright field inverted microscopic analysis; type: functional, cell-based; conditions: dose 0.5-2 µM
MX1 [5] = experiment: Induction of cell cycle arrest in human MX1 cells assessed as decrease in accumulation of cells at S phase at 0.5 to 2 uM measured after 24 hrs by propidium iodide staining based FACS calibur flow cytometeric analysis; type: functional; conditions: dose 0.5-2 µM
MDA-MB-231 [6] = experiment: Induction of cell cycle arrest in human MDA-MB-231 cells assessed as accumulation of cells at G0/G1 phase incubated for 24 hrs by propidium iodide staining based FACS calibur flow cytometeric analysis; type: functional; conditions: dose 0.5-2 µM
MX1 [7] = experiment: Induction of apoptosis in human MX1 cells assessed as total apoptotic cells measured at 5 uM after 48 hrs by FITC-Annexin-V and propidium iodide based flow cytometric analysis (reference value: 16.36%); type: functional
MX1 [8] = experiment: Induction of apoptosis in human MX1 cells assessed as late apoptotic cells measured at 0.5 uM after 48 hrs by FITC-Annexin-V and propidium iodide based flow cytometric analysis (reference value: 5.24%); type: functional
MX1 [9] = experiment: Induction of apoptosis in human MX1 cells assessed as necrotic cells measured at 0.5 uM after 48 hrs by FITC-Annexin-V and propidium iodide based flow cytometric analysis (reference value: 0.055 %); type: functional
MX1 [10] = experiment: Induction of apoptosis in human MX1 cells assessed as late apoptotic cells measured at 1 uM after 48 hrs by FITC-Annexin-V and propidium iodide based flow cytometric analysis (reference value: 5.24%); type: functional
MX1 [11] = experiment: Induction of apoptosis in human MX1 cells assessed as necrotic cells measured at 1 uM after 48 hrs by FITC-Annexin-V and propidium iodide based flow cytometric analysis (reference value: 0.055 %); type: functional
MX1 [12] = experiment: Induction of apoptosis in human MX1 cells assessed as late apoptotic cells measured at 2 uM after 48 hrs by FITC-Annexin-V and propidium iodide based flow cytometric analysis (reference value: 5.24%); type: functional
MX1 [13] = experiment: Induction of apoptosis in human MX1 cells assessed as necrotic cells measured at 2 uM after 48 hrs by FITC-Annexin-V and propidium iodide based flow cytometric analysis (reference value: 0.055 %); type: functional
MX1 [14] = experiment: Induction of apoptosis in human MX1 cells assessed as late apoptotic cells measured at 5 uM after 48 hrs by FITC-Annexin-V and propidium iodide based flow cytometric analysis (reference value: 5.24%); type: functional
MX1 [15] = experiment: Induction of apoptosis in human MX1 cells assessed as necrotic cells measured at 5 uM after 48 hrs by FITC-Annexin-V and propidium iodide based flow cytometric analysis (reference value: 0.055 %); type: functional
MDA-MB-231 [16] = experiment: Induction of apoptosis in human MDA-MB-231 cells assessed as late apoptotic cells measured at 0.5 uM after 48 hrs by FITC-Annexin-V and propidium iodide based flow cytometric analysis (reference value: 2.68%); type: functional
MDA-MB-231 [17] = experiment: Induction of apoptosis in human MDA-MB-231 cells assessed as necrotic cells measured at 0.5 uM after 48 hrs by FITC-Annexin-V and propidium iodide based flow cytometric analysis (reference value: 0.253 %); type: functional
MDA-MB-231 [18] = experiment: Induction of apoptosis in human MDA-MB-231 cells assessed as viable cells measured at 2 uM after 48 hrs by FITC-Annexin-V and propidium iodide based flow cytometric analysis (reference value: 94.4% ); type: functional; conditions: read-out: Activity
MDA-MB-231 [19] = experiment: Induction of apoptosis in human MDA-MB-231 cells assessed as early apoptotic cells measured at 2 uM after 48 hrs by FITC-Annexin-V and propidium iodide based flow cytometric analysis (reference value: 2.71%); type: functional
MDA-MB-231 [20] = experiment: Induction of apoptosis in human MDA-MB-231 cells assessed as late apoptotic cells measured at 2 uM after 48 hrs by FITC-Annexin-V and propidium iodide based flow cytometric analysis (reference value: 2.68%); type: functional
MDA-MB-231 [21] = experiment: Induction of apoptosis in human MDA-MB-231 cells assessed as necrotic cells measured at 2 uM after 48 hrs by FITC-Annexin-V and propidium iodide based flow cytometric analysis (reference value: 0.253 %); type: functional
MDA-MB-231 [22] = experiment: Induction of apoptosis in human MDA-MB-231 cells assessed as late apoptotic cells measured at 5 uM after 48 hrs by FITC-Annexin-V and propidium iodide based flow cytometric analysis (reference value: 2.68%); type: functional
MDA-MB-231 [23] = experiment: Induction of apoptosis in human MDA-MB-231 cells assessed as necrotic cells measured at 5 uM after 48 hrs by FITC-Annexin-V and propidium iodide based flow cytometric analysis (reference value: 0.253 %); type: functional
MX1 [24] = experiment: Inhibition of PI3K/Akt signaling in human MX1 cells assessed as decrease in phosphorylated S6 expression incubated for 24 hrs by Western blotting analysis; type: cell-based; conditions: dose 0.5-5 µM
MDA-MB-231 [25] = experiment: Inhibition of PI3K/Akt signaling in human MDA-MB-231 cells assessed as decrease in phosphorylated S6 expression incubated for 24 hrs by Western blotting analysis; type: cell-based; conditions: dose 0.5-2 µM
MDA-MB-231 [26] = experiment: Inhibition of PI3K/Akt signaling in human MDA-MB-231 cells assessed as decrease in phosphorylated Akt expression level incubated for 24 hrs by Western blotting analysis; type: cell-based; conditions: dose 0.5-5 µM
EMT6 = experiment: Antitumor activity against mouse EMT6 cells allografted in BALBC mouse a assessed as reduction in tumor growth inhibition at 150 mg/kg, IG administered every 3 days for 21 days relative to control; type: functional; conditions: EMT6, po, 504 h, time 21 day, read-out: TGI
[27] = Toxicity in BALBC mouse allografted with mouse EMT6 cells assessed as weight loss at 50 to 150 mg/kg, IG administered every 3 days for 21 days; type: organism-based; conditions: in vivo, po, 504 h, dose 50-150 mg/kg, time 21 day
MDA-MB-231 [28] = experiment: Antitumor activity against human MDA-MB-231 cells xenografted in BALBC mouse assessed as inhibition of tumor growth at 75 mg/kg, IG administered every 3 days for 21 days relative to control; type: functional; conditions: MDA-MB-231, po, 504 h, time 21 day, read-out: TGI
MDA-MB-231 [29] = experiment: Antitumor activity against human MDA-MB-231 cells xenografted in BALBC mouse assessed as inhibition of tumor growth at 24 mg/kg, ip administered every 3 days for 21 days relative to control; type: functional; conditions: MDA-MB-231, 504 h, time 21 day, read-out: TGI
[30] = Toxicity in BALBC mouse xenografted with human MDA-MB-231 cells assessed as weight loss at 50 to 150 mg/kg, IG administered every 3 days for 21 days; type: organism-based; conditions: in vivo, po, 504 h, dose 50-150 mg/kg, time 21 day
MX1 [31] = experiment: Inhibition of PI3K/Akt signaling in human MX1 cells assessed as decrease in total Akt expression level incubated for 24 hrs by Western blotting analysis; type: cell-based

## CC1(C)C=Cc2c(c(/C=C/C(=O)NCCOc3no[n+]([O-])c3S(=O)(=O)c3ccccc3)cc3c2[nH]c2ccc(C(C)(C)C)cc23)O1
MX1 [1]
  Activity: Active
MDA-MB-231 [2]
  Nitrite release: 54.7 µM
MX1 [3]
  Activity: Active
MX1 [4]
  Activity: Active
MX1 [5]
  Activity: Active
MDA-MB-231 [6]
  Activity: Dose-Dependent Effect
MX1 [7]
  Activity: 87.2%
MX1 [8]
  Activity: 5.2%
MX1 [9]
  Activity: 0.202%
MX1 [10]
  Activity: 8.1%
MX1 [11]
  Activity: 0.193%
MX1 [12]
  Activity: 2.83%
MX1 [13]
  Activity: 0.043%
MX1 [14]
  Activity: 14.5%
MX1 [15]
  Activity: 0.276%
MDA-MB-231 [16]
  Activity: 3.85%
MDA-MB-231 [17]
  Activity: 0.644%
MDA-MB-231 [18]
  viability at 2 µM: 75.9%
MDA-MB-231 [19]
  Activity: 10.8%
MDA-MB-231 [20]
  Activity: 12.8%
MDA-MB-231 [21]
  Activity: 0.535%
MDA-MB-231 [22]
  Activity: 20.8%
MDA-MB-231 [23]
  Activity: 0.867%
MX1 [24]
  inhibition: Dose-Dependent Effect
MDA-MB-231 [25]
  inhibition: Active
MDA-MB-231 [26]
  inhibition: Dose-Dependent Effect
EMT6
  inhibition in vivo at 150 mg/kg: 50.1%
[27]
  Activity: Non-Toxic
MDA-MB-231 [28]
  inhibition in vivo at 75 mg/kg: 30%
MDA-MB-231 [29]
  inhibition in vivo at 24 mg/kg: 84.3%
[30]
  Activity: Non-Toxic
MX1 [31]
  inhibition: inactive
